Test results taken from US20150376196A1, “4-SUBSTITUTED PYRROLO- AND PYRAZOLO-DIAZEPINES” (BAYER PHARMA AKTIENGESELLSCHAFT, priority 2013, published 2015).
Where two headings read alike, the source gives them in different places.

Tests used:
BRD4 (BD1) = target: T1, BRD4 (BD1) (Homo sapiens, UniProt O60885); test: Binding assay BRD4/acetylated peptide H4 (TR-FRET protein-protein interaction assay)
T1 construct: amino acids 67-152, longer constructs also being possible, preferably amino acids 44-168; made in house; host or cells: E. coli
Excerpt: To assess the BRD4 binding strength of the substances described in this application, the ability thereof to inhibit the interaction between BRD4 (BD1) and acetylated histone H4 in a dose-dependent manner was quantified.
For this purpose, a time-resolved fluorescence resonance energy transfer (TR-FRET) assay was used, which measures the binding between N-terminally His6-tagged BRD4 (BD1) (amino acids 67-152, longer constructs also being possible, preferably amino acids 44-168) and a synthetic acetylated histone H4 (Ac-H4) peptide with sequence GRGK(Ac)GGK(Ac)GLGK(Ac)GGAK(Ac)RHGSGSK-biotin. The recombinant BRD4 protein produced in-house according to Filippakopoulos et al., Nature, 2010, 468:1119-1123 was expressed in E. coli and purified by means of (Ni-NTA) affinity and (Sephadex G-75) size exclusion chromatography. The Ac-H4 peptide can be purchased, for example, from Biosyntan (Berlin, Germany).
In the assay, typically 11 different concentrations of each substance (0.1 nM, 0.33 nM, 1.1 nM, 3.8 nM, 13 nM, 44 nM, 0.15 μM, 0.51 μM, 1.7 μM, 5.9 μM and 20 μM) were analysed as duplicates on the same microtitre plate. For this purpose, 100-fold concentrated solutions in DMSO were prepared by serial dilutions (1:3.4) of a 2 mM stock solution into a clear, 384-well microtitre plate (Greiner Bio-One, Frickenhausen, Germany). From this, 50 nl were transferred into a black test plate (Greiner Bio-One, Frickenhausen, Germany). The test was started by the addition of 2 μl of a 2.5-fold concentrated BRD4 solution (final concentration typically 10 nM in the 5 μl of reaction volume) in aqueous assay buffer [50 mM HEPES pH 7.5, 50 mM sodium chloride (NaCl), 0.25 mM CHAPS and 0.05% serum albumin (BSA)] to the substances in the test plate. This was followed by a 10-minute incubation step at 22° C. for the pre-equilibration of putative complexes between BRD4 and the substances.
The mixture was then incubated in the dark at 22° C. for one hour and then at 4° C. for at least 3 hours and for no longer than overnight. The formation of BRD4/Ac-H4 complexes was determined by the measurement of the resonance energy transfer from the streptavidin-Eu cryptate to the anti-6His-XL665 antibody present in the reaction. For this purpose, the fluorescence emission was measured at 620 nm and 665 nm after excitation at 330-350 nm in a TR-FRET measuring instrument, for example a Rubystar or Pherastar (both from BMG Lab Technologies, Offenburg, Germany) or a Viewlux (Perkin-Elmer). The ratio of the emissions at 665 nm and at 622 nm was taken as an indicator of the amount of BRD4/Ac-H4 complexes formed.
The data (ratios) obtained were normalized, with 0% inhibition corresponding to the mean from the measurements for a set of controls (typically 32 data points) in which all the reagents were present. In these, in place of test substances, 50 nl of DMSO (100%) were used Inhibition of 100% corresponded to the mean from the measurements for a set of controls (typically 32 data points) in which all the reagents except BRD4 were present. The IC50 was determined by regression analysis based on a 4-parameter equation (minimum, maximum, IC50, Hill; Y=max+(min−max)/(1+(X/IC50)^Hill)).

MOLM-13 cells = test: Cell proliferation assay (alamarBlue), MOLM-13; assay type: cell-based; settings: Homo sapiens, Leukaemia, 96 hours, inhibition of cell proliferation
Method: (§1) In accordance with the invention, the ability of the substances to inhibit cell proliferation was determined Cell viability was determined by means of the alamarBlue® reagent (Invitrogen) in a Victor X3 Multilabel Reader (Perkin Elmer). The excitation wavelength was 530 nm and the emission wavelength […].
The MOLM-13 cells (DSMZ, ACC 554) were sown at a concentration of 4000 cells/well in 100 μl of growth medium (RPMI1640, 10% FCS) on 96-well microtitre plates.
(§2) The MDA-MB-231 cells (DSMZ, ACC 732) were sown at a concentration of 4000 cells/well in 100 μl of growth medium (DMEM/Ham's F12 medium, 10% FCS) on 96-well microtitre plates. After overnight incubation at 37° C., the fluorescence values (CI values) were determined. Then the plates were treated with various substance dilutions (1E-5 M, 3E-6 M, 1E-6 M, 3E-7 M, 1E-7 M, 3E-8 M, 1E-8 M) and incubated at 37° C. for 72 (MV-4-11, LOX-IMVI cells), 96 (MOLM-13, B16F10, […] cells), 120 (MOLP-8, KMS-12-PE cells) or 168 (LAPC-4 cells) hours. Subsequently, the fluorescence values were determined (CO values). For the data analysis, the CI values were subtracted from the CO values and the results were compared between cells which had been treated with various dilutions of the substance or only with buffer solution. The ICso values (substance concentration needed for 50% inhibition of cell proliferation) were calculated therefrom.
(§3) The substances were tested in the cell lines in Table 1, which represent the indications specified by way of example: […]

B16F10 cells = test: Cell proliferation assay (alamarBlue), B16F10; assay type: cell-based; settings: Mus musculus, B16-F10, Melanoma (BRAF wild-type), 96 hours, inhibition of cell proliferation
Method: as §1
The B16F10 cells (ATCC, CRL-6475) were sown at a concentration of 300-500 cells/well in 100 μl of growth medium (DMEM with phenol red, 10% FCS) on 96-well microtitre plates.
as §2, §3

MOLP-8 cells = test: Cell proliferation assay (alamarBlue), MOLP-8; assay type: cell-based; settings: Homo sapiens, Multiple myeloma, 120 hours, inhibition of cell proliferation
Method: as §1
The MOLP-8 cells (DSMZ, ACC 569) were sown at a concentration of 4000 cells/well in 100 μl of growth medium (RPMI1640, 20% FCS) on 96-well microtitre plates.
as §2, §3

LAPC-4 cells = test: Cell proliferation assay (alamarBlue), LAPC-4; assay type: cell-based; settings: Homo sapiens, LAPC4, Prostate, 1 nM methyltrienolone, 168 hours, inhibition of cell proliferation
Method: as §1
The LAPC-4 cells (ATCC, PTA-1441TM) were sown at a concentration of 4000 cells/well in 100 μl of growth medium (RPMI1640, 2 mM L-glutamine, 10% cFCS) on 96-well microtitre plates. One day later, the LAPC-4 cells were treated with 1 nM methyltrienolone and various substance dilutions.
as §2, §3

MDA-MB-231 cells = test: Cell proliferation assay (alamarBlue), MDA-MB-231; assay type: cell-based; settings: Homo sapiens, Breast, 96 hours, inhibition of cell proliferation
Method: as §1, §2, §3

[1] = BRD4 (BD1) / acetylated histone H4 peptide, TR-FRET, read-out: IC50 (BRD4)

COC(=O)C[C@@H]1N=C(c2ccc(Cl)cc2)c2c(cn(C)c2C)-n2c(C)nnc21 [Example 1]
IC50 (BRD4 (BD1)): 10 nM
IC50 (MOLM-13 cells): 130 nM
IC50 (B16F10 cells): 80 nM
IC50 (MOLP-8 cells): 50 nM
IC50 (LAPC-4 cells): 50 nM
IC50 (MDA-MB-231 cells): 90 nM

COC(=O)C[C@@H]1N=C(c2ccccc2)c2c(cn(C)c2C)-n2c(C)nnc21 [Example 2, 2-(4S)-(1,7,8-Trimethyl-6-phenyl-4,8-dihydropyrrolo[3,4f][1,2,4]triazolo[4,3-a][1,4]diazepin-4-yl)acetic acid methyl ester]
IC50 (BRD4 (BD1)): 10 nM
IC50 (MOLM-13 cells): 330 nM
IC50 (B16F10 cells): 80 nM
IC50 (LAPC-4 cells): 30 nM
IC50 (MDA-MB-231 cells): 90 nM

Cc1c2c(cn1C)-n1c(C)nnc1[C@H](CC(=O)OC(C)(C)C)N=C2c1ccc(Cl)cc1 [Example 3]
IC50 (BRD4 (BD1); [1]): 30 nM
IC50 (MOLM-13 cells): 210 nM
IC50 (B16F10 cells): 190 nM
IC50 (MOLP-8 cells): 190 nM
IC50 (LAPC-4 cells): 100 nM

Cc1c2c(cn1C)-n1c(C)nnc1[C@H](CC(=O)N1CC(F)C1)N=C2c1ccc(Cl)cc1 [Example 5, (−)-2-[(4S)-6-(4-Chlorophenyl)-1,7,8-trimethyl-4,8-dihydropyrrolo[3,4f][1,2,4]triazolo [4,3-a][1,4]diazepin-4-yl]-1-(3-fluoroazetidin-1-yl)ethan-1-one]
IC50 (BRD4 (BD1); [1]): 70 nM
IC50 (MOLM-13 cells): 530 nM
IC50 (B16F10 cells): 580 nM
IC50 (MOLP-8 cells): 370 nM
IC50 (LAPC-4 cells): 370 nM

COC(=O)C[C@@H]1N=C(c2ccc(Cl)cc2)c2nn(C)cc2-n2c(C)nnc21 [Example 6, 2-[(4S)-6-(4-Chlorophenyl)-1,8-dimethyl-4,8-dihydropyrazolo[3,4-f][1,2,4]triazolo[4,3-a][1,4]diazepin-4-yl]acetic acid methyl ester]
IC50 (BRD4 (BD1)): 140 nM
IC50 (MOLM-13 cells): 450 nM
IC50 (B16F10 cells): 550 nM
IC50 (MOLP-8 cells): 450 nM
IC50 (LAPC-4 cells): 250 nM

COC(=O)C[C@@H]1N=C(c2ccc(Cl)cc2)c2c(cnn2C)-n2c(C)nnc21 [Example 7, 2-[(4S)-6-(4-Chlorophenyl)-1,7-dimethyl-4,7-dihydropyrazolo[3,4-f][1,2,4]triazolo[4,3-a][1,4]diazepin-4-yl]acetic acid methyl ester]
IC50 (BRD4 (BD1)): 230 nM
IC50 (MOLM-13 cells): 740 nM
IC50 (MOLP-8 cells): 450 nM

Cc1c2c(cn1C)-n1c(C)nnc1[C@H](CC(=O)N1CCS(=O)(=O)CC1)N=C2c1ccc(Cl)cc1 [Example 8, (−)-2-[(4S)-6-(4-Chlorophenyl)-1,7,8-trimethyl-4,8-dihydropyrrolo[3,4f][1,2,4]triazolo[4,3-a][1,4]diazepin-4-yl]-1-(1,1-dioxidothiomorpholino)ethan-1-one]
IC50 (BRD4 (BD1); [1]): 100 nM
IC50 (MOLM-13 cells): 560 nM
IC50 (B16F10 cells): 670 nM
IC50 (MOLP-8 cells): 440 nM
IC50 (LAPC-4 cells): 360 nM

Cc1c2c(cn1C)-n1c(C)nnc1[C@H](CC(=O)N(C)CC1(C)COC1)N=C2c1ccc(Cl)cc1 [Example 11, (−)-2-[(4S)-6-(4-Chlorophenyl)-1,7,8-trimethyl-4,8-dihydropyrrolo[3,4f][1,2,4]triazolo[4,3-a][1,4]diazepin-4-yl]-N-methyl-N-[(3-methyloxetan-3-yl)methyl]acetamide]
IC50 (BRD4 (BD1); [1]): 220 nM
IC50 (MOLM-13 cells): 1990 nM
IC50 (B16F10 cells): 1400 nM
IC50 (LAPC-4 cells): 810 nM

Cc1c2c(cn1C)-n1c(C)nnc1[C@H](CC(=O)N1CCC(=O)C1)N=C2c1ccc(Cl)cc1 [Example 12]
IC50 (BRD4 (BD1); [1]): 110 nM
IC50 (MOLM-13 cells): 480 nM
IC50 (B16F10 cells): 600 nM
IC50 (LAPC-4 cells): 220 nM

Cc1c2c(cn1C)-n1c(C)nnc1[C@H](CC(=O)Nc1ccc3c(c1)CC(=O)N3)N=C2c1ccc(Cl)cc1 [Example 13, 2-[(4S)-6-(4-Chlorophenyl)-1,7,8-trimethyl-4,8-dihydropyrrolo[3,4-f][1,2,4]triazolo[4,3-a][1,4]diazepin-4-yl]-N-(2-oxo-2,3-dihydro-1H-indol-5-yl)acetamide]
IC50 (BRD4 (BD1); [1]): 40 nM
IC50 (MOLM-13 cells): 190 nM
IC50 (B16F10 cells): 330 nM
IC50 (MOLP-8 cells): 220 nM
IC50 (LAPC-4 cells): 90 nM

Cc1nnc2n1-c1cn(C)nc1C(c1ccc(Cl)cc1)=NC2CC(=O)N1CCS(=O)(=O)CC1 (centres unmarked) [Example 14, 2-[6-(4-Chlorophenyl)-1,8-dimethyl-4,8-dihydropyrazolo[3,4-f][1,2,4]triazolo[4,3-a][1,4]diazepin-4-yl]-1-(1,1-dioxidothiomorpholin-4-yl)ethanone]
IC50 (BRD4 (BD1); [1]): 640 nM
IC50 (MOLM-13 cells): 3460 nM
IC50 (MOLP-8 cells): 4000 nM

Cc1noc(C[C@@H]2N=C(c3ccc(Cl)cc3)c3c(cn(C)c3C)-n3c(C)nnc32)n1 [Example 26, (4S)-6-(4-Chlorophenyl)-1,7,8-trimethyl-4-[(3-methyl-1,2,4-oxadiazol-5-yl)methyl]-4,8-dihydropyrrolo[3,4-f][1,2,4]triazolo[4,3-a][1,4]diazepine]
IC50 (BRD4 (BD1); [1]): 20 nM
IC50 (MOLM-13 cells): 80 nM
IC50 (MOLP-8 cells): 50 nM

CCc1noc(C[C@@H]2N=C(c3ccc(Cl)cc3)c3c(cn(C)c3C)-n3c(C)nnc32)n1 [Example 28, (4S)-6-(4-Chlorophenyl)-1,7,8-trimethyl-4-[(3-ethyl-1,2,4-oxadiazol-5-yl)methyl]-4,8-dihydropyrrolo[3,4-f][1,2,4]triazolo[4,3-a][1,4]diazepine]
IC50 (BRD4 (BD1); [1]): 30 nM
IC50 (MOLM-13 cells): 70 nM
IC50 (MOLP-8 cells): 40 nM

Cc1c2c(cn1C)-n1c(C)nnc1[C@H](Cc1nc(C(C)C)no1)N=C2c1ccc(Cl)cc1 [Example 30, (4S)-6-(4-Chlorophenyl)-1,7,8-trimethyl-4-{[3-(propan-2-yl)-1,2,4-oxadiazol-5-yl]methyl}-4,8-dihydropyrrolo[3,4-f][1,2,4]triazolo[4,3-a][1,4]diazepine]
IC50 (BRD4 (BD1); [1]): 30 nM
IC50 (MOLM-13 cells): 70 nM
IC50 (MOLP-8 cells): 50 nM
